According to patent EP2955191A1, “Compound, composition and method for treating and/or ameoliorating kidney disease” (Trineo Biotechnology Co. Ltd, priority 2014, dated 2015):

Legend:
[1] = tested on: MDCK cells; test: Cisplatin induced in vitro kidney cell apoptosis (mitochondria membrane potential, DiOC6 staining); format: cell-based, canine; details: given after 50 µM cisplatin for 4 hrs, FIG 1A
Procedure: Madin-Darby canine kidney (MDCK) cells (1.5 x 10^5 cells/mL) were cultured and maintained in Dulbecco's modified Eagle medium (DMEM) supplemented with 10% fetal bovine serum (FBS), 100 units/mL penicillin, […] streptomycin, 2mM L-glutamine, non-essential amino acids and sodium pyruvate, and maintained in 5% CO2 at 37 °C until reached 80% confluence, then were subject to cell passages.
MDCK cells were cultured in according to procedures described in the "Materials and Methods" section. To start the experiment, MDCK cells were first incubated with 50 µM cisplatin for 4 hrs, then various concentrations of the compound of formula (I) (50µg/mL or 100 µg/mL) or the YKII-10 composition of example 1.2 (25 to 100 µg/mL) were given to cisplatin-treated cells and further incubated for another 24 hrs. Mitochondria membrane potentials were then measured by staining the live cells with fluorescent dyes (e.g., 50 nM DiOC6), in which 50 nM DiOC6 were added to cells and incubated at 37 °C for 30 min. The cells were then washed twice with phosphate buffer solution before subjecting to microscopy analysis using the inverted fluorescent microscope. […] Results are illustrated in FIGs 1A and 1B.

[2] = tested on: Blb/c mice; test: Lipopolysaccharide (LPS) induced in vivo kidney inflammation (urine protein); details: oral 100 mg/Kg; LPS 2.5 mg/Kg/day i.p. for 5 days; urine on fifth and tenth day; FIG 3
Procedure: Blb/c mice were kept in pathogen-free environment under 12:12 light-dark cycle with food (laboratory rodent diet 5001 purchased from PMI Nutrition International Inc. MO, USA) and water (i.e., distilled water) provided ad libitum, ambient temperature and relative humidity were respectively set at 22±3 °C and 50±20%. All procedures involving animal studies of the present disclosure comply with the "Guideline for the Care and Use of Laboratory Animals" issued by The Chinese-Taipei Society of Laboratory Animal Sciences.
In this example, to evaluate the therapeutic or prophylactic function of the compositon of example 1.2, animals were first injected intraperitoneally with lipopolysaccharide (LPS) to induce in vivo kidney inflammation before being subect to the treatment of the compositon of example 1.2.
Blb/c mice (6 weeks old) were randomly assigned to two groups, and injected intraperitoneally with lipopolysaccharide (LPS, 2.5 mg/Kg/day) for 5 consecutive days so as to induce kidney inflammation. […] Unine sampls were respectively collected on the fifth and the tenth day after the experiment started, and analyzed for the level of urine protein therein. […]

C[C@H](CCC(=O)O)[C@H]1C[C@H](O)[C@@]2(C)C3=C(C(=O)C[C@]12C)[C@@]1(C)CCC(=O)C(C)(C)[C@@H]1C[C@@H]3O [compound of formula (I)]
reversing cisplatin-induced apoptosis of MDCK cell ([1]; 50µg/mL or 100 µg/mL for 24 hrs): capable of reversing
recovery on the membrane potential ([1]; 100 µg/mL for 24 hrs, MDCK cells): about 80%
urine protein level [2]: effective in reducing
